One compound from ChEMBL document CHEMBL5729407, “Substituted piperidine compounds and their use” (2022) can be followed below.

Each structure is given as a SMILES string. A value given as a limit tells only on which side of the number the result lay.

In test [1] the target is T1, Orexin receptor type 2 (Homo sapiens, UniProt O43614).
T1 sequence (O43614 whole entry): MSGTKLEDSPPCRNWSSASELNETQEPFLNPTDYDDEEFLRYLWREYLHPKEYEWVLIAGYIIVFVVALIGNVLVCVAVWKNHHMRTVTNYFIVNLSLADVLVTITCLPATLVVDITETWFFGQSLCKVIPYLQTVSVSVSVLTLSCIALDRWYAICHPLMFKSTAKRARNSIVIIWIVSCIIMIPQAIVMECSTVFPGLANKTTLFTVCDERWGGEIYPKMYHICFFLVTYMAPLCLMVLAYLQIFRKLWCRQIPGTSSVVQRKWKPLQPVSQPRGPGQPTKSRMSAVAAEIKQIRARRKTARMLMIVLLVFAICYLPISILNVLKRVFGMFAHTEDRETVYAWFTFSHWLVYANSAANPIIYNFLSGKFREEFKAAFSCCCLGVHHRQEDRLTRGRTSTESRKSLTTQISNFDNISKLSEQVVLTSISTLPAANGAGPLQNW
Nature of the test: (§1) Evaluation of Activity for OX1R and OX2R: HEK293 (human embryonic kidney 293) cells with forced expression of human OX1R (hOX1R) or human OX2R (hOX2R) were seeded in a 384-well microplate (Greiner) at 10,000 per well and cultured for 1 day in high-glucose-DMEM (FujiFilm Corp.—Wako Pure Chemical Industries, Ltd.) containing added 10% FBS ([…]) and 1% Penicillin-Streptomycin (FujiFilm Corp.—Wako Pure Chemical Industries, Ltd.). After removing the medium, 40 μL of assay buffer (20 mM HEPES (Sigma-Aldrich Japan, KK.), Hanks' balanced salt solution (Gibco), 0.1% BSA (Sigma-Aldrich Japan, KK.), 0.1% Pluronic F-127 (Invitrogen)) containing Calcium 4 dye (Molecular Device Corporation) and 2.5 mM probenecid (Sigma-Aldrich Japan, KK.) were added, and the plate was incubated for 60 minutes. After further adding 20 μL of assay buffer, 20 μL of assay buffer containing the test compound was added and reaction was initiated. Change in intracellular calcium ion concentration during the reaction was measured based on the fluorescence intensity ratio in terms of the fluorescence value with wavelength excitation at 480 nm and detection at 540 nm, using FDSS7000 (Hamamatsu Photonics, K.K.). The test compound was dissolved in DMSO to 10 mM, and diluted with assay buffer to a final concentration of from 3×10−11 M to 1×10−7 M (DMSO final concentration of 0.1%). […]. The class given is cell-based.

Test [2] addresses T2, Orexin/Hypocretin receptor type 1 (Homo sapiens, UniProt O43613).
T2 sequence (O43613 whole entry): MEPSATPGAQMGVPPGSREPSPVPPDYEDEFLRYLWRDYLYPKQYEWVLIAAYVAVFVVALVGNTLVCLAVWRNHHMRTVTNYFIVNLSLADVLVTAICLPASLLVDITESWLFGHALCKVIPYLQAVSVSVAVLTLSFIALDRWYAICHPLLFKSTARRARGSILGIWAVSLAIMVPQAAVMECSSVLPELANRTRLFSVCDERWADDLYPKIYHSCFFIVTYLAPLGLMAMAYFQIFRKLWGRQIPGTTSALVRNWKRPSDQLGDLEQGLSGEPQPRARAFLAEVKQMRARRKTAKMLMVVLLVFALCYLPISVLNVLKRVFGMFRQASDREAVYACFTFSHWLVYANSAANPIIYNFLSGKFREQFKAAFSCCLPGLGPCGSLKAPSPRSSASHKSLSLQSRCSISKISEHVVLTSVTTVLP
The test is described as §1. It is filed as cell-based.

For the compound `CO[C@@H]1CN(c2ncc(F)cn2)CC[C@@H]1[C@@H]1C[C@H]2CC[C@@H](C1)N2[C@@H](C(N)=O)C(C)C`, the results for the EC50 in test [1] and in test [2] were 3.08 nM and above 100 nM, respectively.
